{"source": "patent US20230048350A1", "about": "“BENZOCOUMARIN AMPK ACTIVATOR COMPOUNDS, COMPOSITIONS, METHODS AND USES THEREOF” (SOCIETE DES PRODUITS NESTLE S.A., priority 2019, published 2023)", "key": {"AMPK β1 WT": {"tested_on": "AMPK β1 WT", "assay": "pACC HTRF assay in AMPKβ1/β2 double knockout U-2 OS cells stably expressing β1 WT", "format": "cell-based, human", "details": "varying concentrations", "description": "(§1) AMPKβ1/β2 double knockout U-2 OS Flp-In™ T-Rex™ cell lines were generated by Horizon Discovery (Cambridge, UK). Cells were genotyped and analysed by western blotting to confirm that there was a complete knockout of AMPKβ1/β2. We took these AMPKβ1/β2 double knockout cells, and re-introduced the expression of human β1 wild-type (WT) or a […] Serine 108 to alanine mutation (S108A). This was achieved using the Flp-In™ system (Invitrogen) present in this cell line and stable cells expressing β1 WT or a β1 S108A mutant were generated according to the manufacturers' protocols. Re-expression of the β1 subunit was confirmed by Western blot analysis.\n(§2) Cells stably expressing β1 WT or a β1 S108A mutant were treated with varying concentrations of Compound 1 and subjected to the pACC HTRF (Cisbio) assay to determine the level of phosphorylation of the AMPK substrate, ACC, in cell lysates.\n(§3) AMPKβ1/β2 double knockout cells were used and re-introduced the expression of human β1 WT or β2 WT isoforms. […] Cells stably expressing β1 WT or β2 were treated with varying concentrations of Compound 1 and subjected to the pACC HTRF (Cisbio) assay to determine the level of phosphorylation of the AMPK substrate, ACC, in cell lysates, as in Example 1."}, "AMPK β2 WT isoform": {"tested_on": "AMPK β2 WT isoform", "assay": "pACC HTRF assay in AMPKβ1/β2 double knockout U-2 OS cells stably expressing β2 WT", "format": "cell-based, human", "details": "varying concentrations", "method": "as §3\nThis activation profile is characteristic of activators that bind to the ADaM site and consistent with previous studies showing that ADaM-site activators have poorer activation of β2-containing complexes in vitro and in cells."}, "AMPK": {"tested_on": "AMPK", "assay": "pACC HTRF assay in U-2 OS Flp-In T-REx cells", "format": "cell-based", "details": "30 mins, varying concentrations, HTRF 665 nm/620 nm ratio", "method": "U-2 OS Flp-In T-REx cells were seeded at 50 K in a 96-well plate and left overnight at 37 C in DMEM GlutaMAX (Thermo Fisher Scientific) supplemented with 10% (vol/vol) FBS and 100 U/ml penicillin G, and 100 μg/ml streptomycin. Cells were treated for 30 mins with varying concentrations of Compound 1 in media lacking FBS and then cells were lysed in 50 μl of Cisbio lysis buffer #1 supplemented with blocking solution as per the manufacturer's protocol (Cisbio). Cells were lysed for 30 mins at room temperature before 16 μl of lysate was incubated with 4 μl of the HTRF antibodies (1:40 dilution of the acceptor and donor (p)ACC antibodies, as per the manufacturers protocol). Lysates were incubated overnight with the antibodies before 665 nm/620 nm ratio was determined using a MolecularDevices i3 plate reader (with a HTRF cartridge add-on).\nPhosphorylation of ACC is widely used as a cellular indicator of AMPK activity."}, "[1]": {"tested_on": "AMPK β1 S108A mutant (ADaM-binding site mutant)", "assay": "pACC HTRF assay in AMPKβ1/β2 double knockout U-2 OS cells stably expressing β1 S108A mutant", "format": "cell-based, human", "details": "varying concentrations", "description": "as §1, §2"}}, "note": "“Also recorded” adds a separate entry of the source."}
{"smiles": "COc1cc(O)c2c(c1)c(=O)oc1cc(O)ccc12", "note": "[Compound 1, 3,10-Dihydroxy-8-methoxy-6H-benzo[c]chromen-6-one]", "values": [{"measurement": "phosphorylation of the AMPK substrate, ACC (pACC); AMPK activation", "setting": "AMPK β1 WT", "value": "activates AMPK; also recorded: able to dose-dependently increase pACC"}, {"measurement": "phosphorylation of the AMPK substrate, ACC (pACC); AMPK activation", "setting": "AMPK β2 WT isoform", "value": "does not activate AMPK; also recorded: not able to increase pACC"}, {"measurement": "phosphorylation of the AMPK substrate, ACC (pACC)", "setting": "AMPK", "value": "increases the phosphorylation of the AMPK substrate, ACC, in a dose-dependent manner"}, {"measurement": "phosphorylation of the AMPK substrate, ACC (pACC); AMPK activation", "setting": "[1]", "value": "does not activate AMPK; also recorded: not able to increase pACC"}]}
